What was measured:
Assay in all cases: co-expression with SlCPT2 in E. coli and N. benthamiana, GC-MS
Format in all cases: cell-based
Settings in all cases: NNPP formed in cells by SlCPT2; E. coli 18 °C, 48 h
EdtTPS4 = molecular target: T1, EdtTPS4 (Eremophila denticulata, UniProt A0A6G9KV06)
T1 construct: full length in N. benthamiana; TPS-a class I

EdTPS22 = molecular target: T2, EdTPS22 (Eremophila drummondii, UniProt A0A6G9KSU3)
T2 construct: full length in N. benthamiana; TPS-a class I

ElTPS31 = molecular target: T3, ElTPS31 (Eremophila lucida, UniProt A0A6G9KSS8)
T3 construct: full length in N. benthamiana; TPS-b class I
T3 sequence (A0A6G9KSS8 entry or part of it): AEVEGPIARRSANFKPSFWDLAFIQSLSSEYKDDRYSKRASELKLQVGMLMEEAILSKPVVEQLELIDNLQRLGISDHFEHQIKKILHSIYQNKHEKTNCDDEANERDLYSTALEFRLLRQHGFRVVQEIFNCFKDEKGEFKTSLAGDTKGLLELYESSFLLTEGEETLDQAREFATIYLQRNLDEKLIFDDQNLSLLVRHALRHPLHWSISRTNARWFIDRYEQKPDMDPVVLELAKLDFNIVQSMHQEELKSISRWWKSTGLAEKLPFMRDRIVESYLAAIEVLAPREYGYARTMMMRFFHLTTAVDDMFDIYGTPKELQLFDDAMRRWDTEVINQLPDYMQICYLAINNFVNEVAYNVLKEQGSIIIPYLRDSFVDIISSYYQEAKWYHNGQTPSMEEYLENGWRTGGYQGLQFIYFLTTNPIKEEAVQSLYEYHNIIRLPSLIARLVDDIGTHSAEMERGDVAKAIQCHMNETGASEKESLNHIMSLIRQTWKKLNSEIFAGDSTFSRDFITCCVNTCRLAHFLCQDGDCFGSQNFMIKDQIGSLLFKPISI

ElTPS3 = molecular target: T4, ElTPS3 (Eremophila lucida, UniProt A0A6G9KVC7)
T4 construct: full length in N. benthamiana; TPS-a class I
T4 sequence (A0A6G9KVC7 entry or part of it): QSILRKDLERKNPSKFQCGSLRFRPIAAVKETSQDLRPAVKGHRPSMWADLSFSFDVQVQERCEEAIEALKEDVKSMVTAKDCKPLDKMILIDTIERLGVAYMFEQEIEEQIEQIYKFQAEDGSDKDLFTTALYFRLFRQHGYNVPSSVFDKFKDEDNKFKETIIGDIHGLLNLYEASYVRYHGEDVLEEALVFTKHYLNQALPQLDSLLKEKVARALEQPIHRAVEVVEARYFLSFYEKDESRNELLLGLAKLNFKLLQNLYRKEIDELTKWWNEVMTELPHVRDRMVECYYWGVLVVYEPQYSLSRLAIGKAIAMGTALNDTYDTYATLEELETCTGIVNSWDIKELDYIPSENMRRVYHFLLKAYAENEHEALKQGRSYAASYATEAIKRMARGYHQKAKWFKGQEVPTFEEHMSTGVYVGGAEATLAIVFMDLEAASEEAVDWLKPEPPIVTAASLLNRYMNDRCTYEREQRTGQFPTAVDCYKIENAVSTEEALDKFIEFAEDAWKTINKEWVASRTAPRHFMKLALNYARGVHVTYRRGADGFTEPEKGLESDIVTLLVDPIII

T1 sequence (A0A6G9KV06 entry or part of it): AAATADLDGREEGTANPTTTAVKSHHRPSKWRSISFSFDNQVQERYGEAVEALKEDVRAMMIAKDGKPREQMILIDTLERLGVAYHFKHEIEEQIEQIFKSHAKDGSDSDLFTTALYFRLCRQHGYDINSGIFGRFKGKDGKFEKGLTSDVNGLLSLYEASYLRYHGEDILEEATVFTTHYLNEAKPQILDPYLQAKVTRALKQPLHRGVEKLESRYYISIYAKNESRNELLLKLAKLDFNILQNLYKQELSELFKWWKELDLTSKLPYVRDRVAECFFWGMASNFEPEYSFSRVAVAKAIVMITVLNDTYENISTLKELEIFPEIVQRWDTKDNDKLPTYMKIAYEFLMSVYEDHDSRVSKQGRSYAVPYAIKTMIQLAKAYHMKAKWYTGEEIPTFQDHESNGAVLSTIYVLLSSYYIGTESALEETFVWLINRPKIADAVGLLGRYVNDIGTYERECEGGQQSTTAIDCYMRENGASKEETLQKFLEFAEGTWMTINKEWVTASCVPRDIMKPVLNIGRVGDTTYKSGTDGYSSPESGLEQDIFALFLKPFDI
T2 sequence (A0A6G9KSU3 entry or part of it): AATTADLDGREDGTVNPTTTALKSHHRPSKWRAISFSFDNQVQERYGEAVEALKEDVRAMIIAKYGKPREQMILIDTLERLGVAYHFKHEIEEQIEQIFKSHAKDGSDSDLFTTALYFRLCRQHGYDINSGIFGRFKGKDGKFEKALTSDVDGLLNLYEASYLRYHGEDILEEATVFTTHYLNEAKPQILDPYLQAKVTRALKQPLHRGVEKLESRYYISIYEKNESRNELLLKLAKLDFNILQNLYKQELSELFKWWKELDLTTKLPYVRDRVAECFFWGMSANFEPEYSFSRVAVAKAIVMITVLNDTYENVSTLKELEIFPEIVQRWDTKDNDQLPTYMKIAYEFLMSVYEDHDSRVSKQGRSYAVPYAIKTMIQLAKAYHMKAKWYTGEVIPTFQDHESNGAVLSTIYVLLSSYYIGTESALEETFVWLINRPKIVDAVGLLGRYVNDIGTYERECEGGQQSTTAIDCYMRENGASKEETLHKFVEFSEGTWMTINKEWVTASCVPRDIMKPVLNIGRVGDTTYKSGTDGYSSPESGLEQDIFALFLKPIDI

## CC(C)=CCC/C(C)=C\CC/C(C)=C\CC/C(C)=C\COP(=O)(O)OP(=O)(O)O [nerylneryl diphosphate]
EdtTPS4
  co-expression with SlCPT2 in E. coli and N. benthamiana, GC-MS: co-expression of either one of ElTPS3, ElTPS31, EdtTPS4 or EdTPS22 with NNPP-forming SlCPT2
EdTPS22
  co-expression with SlCPT2 in E. coli and N. benthamiana, GC-MS: co-expression of either one of ElTPS3, ElTPS31, EdtTPS4 or EdTPS22 with NNPP-forming SlCPT2
ElTPS31
  co-expression with SlCPT2 in E. coli and N. benthamiana, GC-MS: co-expression of either one of ElTPS3, ElTPS31, EdtTPS4 or EdTPS22 with NNPP-forming SlCPT2
ElTPS3
  co-expression with SlCPT2 in E. coli and N. benthamiana, GC-MS: co-expression of either one of ElTPS3, ElTPS31, EdtTPS4 or EdTPS22 with NNPP-forming SlCPT2
